This is an account of results in patent US12011444B2, “N-substituted indole derivatives as PGE2 receptor modulators” (Idorsia Pharmaceuticals Ltd, priority 2015, dated 2024).

One may read the IC50 as the concentration at which inhibition is half-maximal. Higher therefore signals weaker potency.

The target in one experiment is PTRGER4 (EP4) (Homo sapiens (Human), UniProt P35408). Description: hEP4 b-arrestin assay (PathHunter HEK 293 PTGER4 b-arrestin cells). The class given is cell-based. The procedure, abridged: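 Antagonist mode: compound is given 15 min at 37 °C, then 20 nM (final) PGE2 for 120 min, in HEK293 cells stably expressing EP4 fused to ProLink and β-arrestin 2 fused to EA. Recruitment read as β-gal luminescence after 1 h reagent at room temperature, as percent of DMSO control.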
Sequence of PTRGER4 (EP4) (P35408 whole entry, looked up, the tested form may be a part): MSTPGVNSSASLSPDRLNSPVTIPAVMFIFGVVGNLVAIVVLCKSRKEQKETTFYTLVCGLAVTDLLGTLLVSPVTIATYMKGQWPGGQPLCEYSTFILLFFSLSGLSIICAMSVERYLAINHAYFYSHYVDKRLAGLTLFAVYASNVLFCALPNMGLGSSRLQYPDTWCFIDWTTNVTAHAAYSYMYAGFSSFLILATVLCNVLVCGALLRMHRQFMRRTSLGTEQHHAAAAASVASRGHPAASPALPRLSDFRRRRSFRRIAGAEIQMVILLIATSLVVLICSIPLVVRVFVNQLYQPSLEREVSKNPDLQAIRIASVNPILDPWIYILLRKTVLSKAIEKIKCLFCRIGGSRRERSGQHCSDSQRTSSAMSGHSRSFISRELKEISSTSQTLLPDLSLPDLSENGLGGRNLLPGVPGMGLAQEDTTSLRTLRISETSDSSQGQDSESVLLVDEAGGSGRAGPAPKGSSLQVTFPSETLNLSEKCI

In a further experiment the target is PTGER2 (EP2) (Homo sapiens (Human), UniProt P43116). Description: hEP2 b-arrestin assay (PathHunter HEK 293 PTGER2 b-arrestin cells). The class given is cell-based. The method, boiled down:
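Readout is β-galactosidase complementation luminescence, expressed as percent of DMSO control (duplicates). PathHunter HEK293 EP2/β-arrestin 2 cells, grown 24 h, received compound for 15 min at 37 °C before a 120 min challenge with PGE2 at 5 μM final, followed by 1 h detection at room temperature.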

The mark [1] stands for this setting: antagonistic activity on hEP4, mean where measured multiple times.
[2] abbreviates: antagonistic activity on hEP2, mean where measured multiple times.
The mark [3] stands for this setting: hEP4 b-arrestin assay (values without asterisk).
The mark [4] stands for this setting: hEP2 b-arrestin assay (values without asterisk).

Sequence of PTGER2 (EP2) (P43116 whole entry): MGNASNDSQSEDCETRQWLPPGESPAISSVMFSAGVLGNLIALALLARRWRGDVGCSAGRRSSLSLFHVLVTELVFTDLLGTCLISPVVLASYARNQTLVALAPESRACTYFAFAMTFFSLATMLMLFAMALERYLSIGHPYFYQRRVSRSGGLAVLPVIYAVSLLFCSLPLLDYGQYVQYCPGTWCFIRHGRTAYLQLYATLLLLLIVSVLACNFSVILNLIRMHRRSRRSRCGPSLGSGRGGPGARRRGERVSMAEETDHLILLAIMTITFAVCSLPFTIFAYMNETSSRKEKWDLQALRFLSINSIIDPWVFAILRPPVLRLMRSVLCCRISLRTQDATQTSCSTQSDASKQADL

`CCC1NC(=O)c2ccc(-c3cc(NCCn4c(C)cc5c(C)ccc(F)c54)ncn3)cc21` (racemic) [compound 207]: the IC50 came out at 645 nM on PTRGER4 (EP4) (setting [1]) and 19 nM against PTGER2 (EP2) (setting [2]).
Taken in the same sequence, the figures for `CCOc1cc(-c2cc(NCCn3c(C)cc4c(C)cccc43)ncn2)ccc1C(=O)O` [compound 128, 4-{6-[2-(2,4-Dimethyl-indol-1-yl)-ethylamino]-pyrimidin-4-yl}-2-ethoxy-benzoic acid] were 417 nM and 16 nM.
Consider `COc1ccc(F)c2c1cc(C#N)n2CCNc1cc(-c2ccc(-c3nc(C)[nH]c3C)cc2)ncn1` [Example 821, 1-(2-{6-[4-(2,5-Dimethyl-1H-imidazol-4-yl)-phenyl]-pyrimidin-4-ylamino}-ethyl)-7-fluoro-4-methoxy-1H-indole-2-carbonitrile], for which the concentration for half-maximal inhibition (IC50) worked out at 2 nM at PTRGER4 (EP4) (setting [3]) and 4 nM against PTGER2 (EP2) (setting [4]).
Turning to `CCOc1cc(-c2cc(NCCn3c(C)cc4c(Cl)ccc(F)c43)ncn2)sc1C(=O)O` [compound 240], the IC50 against PTRGER4 (EP4) (setting [1]) was found to be 10 nM; against PTGER2 (EP2) (setting [2]), 2 nM.
`COc1ccc(Cl)c2c1cc(C)n2CCNc1cc(-c2ccc3[nH]c(C)nc3c2)ncn1` [compound 80]: the values for the IC50 against PTRGER4 (EP4) (setting [1]) and against PTGER2 (EP2) (setting [2]) were 713 nM and 238 nM, respectively.
Turning to `COc1ccc(F)c2c1cc(C#N)n2CCNc1cc(-c2ccnc(C(F)(F)F)c2)ncn1` [Example 1007, 7-Fluoro-4-methoxy-1-{2-[6-(2-trifluoromethyl-pyridin-4-yl)-pyrimidin-4-ylamino]-ethyl}-1H-indole-2-carbonitrile], the half-inhibitory concentration (IC50) came out at 67 nM at PTRGER4 (EP4) (setting [3]) and 24 nM at PTGER2 (EP2) (setting [4]).
For the molecule `CCCSc1cc(-c2cc(NCCn3c(C)cc4c(C)ccc(Cl)c43)ncn2)ccc1C(=O)O` [compound 334, 4-{6-[2-(7-Chloro-2,4-dimethyl-indol-1-yl)-ethylamino]-pyrimidin-4-yl}-2-propylsulfanyl-benzoic acid], the figures for the IC50 against PTRGER4 (EP4) (setting [1]) and at PTGER2 (EP2) (setting [2]) were 603 nM and 28 nM, respectively.
On to `COc1cc(F)cc2c1cc(C#N)n2CCNc1cc(-c2ccc(C(=O)O)c(SC(C)C)c2)ncn1` [Example 938, 4-{6-[2-(2-Cyano-6-fluoro-4-methoxy-indol-1-yl)-ethylamino]-pyrimidin-4-yl}-2-isopropylsulfanyl-benzoic acid], for which the IC50 on PTRGER4 (EP4) (setting [3]) is 29 nM; at PTGER2 (EP2) (setting [4]), 38 nM.
As for `COc1ccc(F)c2c1cc(C)n2CCNc1cc(-c2ccc(NC(N)=O)cc2)ncn1` [compound 132, (4-{6-[2-(7-Fluoro-4-methoxy-2-methyl-indol-1-yl)-ethylamino]-pyrimidin-4-yl}-phenyl)-urea], the IC50 at PTRGER4 (EP4) (setting [1]) is 277 nM; on PTGER2 (EP2) (setting [2]), 43 nM.
The like results for `COc1ccc(F)c2c1cc(C)n2CCNc1cc(-c2cc(C)c(C(=O)O)c(C)c2)ncn1` [compound 289] were, in that order, 299 nM and 53 nM.
In the case of `Cc1cc(-c2cc(NCCn3c(C)cc4c(C)ccc(F)c43)ncn2)cc(Cl)c1C(=O)O` [compound 123, 2-Chloro-4-{6-[2-(7-fluoro-2,4-dimethyl-indol-1-yl)-ethylamino]-pyrimidin-4-yl}-6-methyl-benzoic acid], the IC50 against PTRGER4 (EP4) (setting [1]) came out at 158 nM; at PTGER2 (EP2) (setting [2]), 30 nM.
Taken in the same sequence, the figures for `Cc1ccc(F)c2c1cc(C)n2CCNc1cc(-c2ccc3ccncc3c2)ncn1` [compound 357] were 272 nM and 54 nM.
On to `COc1ccc(F)c2c1cc(C)n2CCNc1cc(-c2cc(OC(C)C)c(CCC(=O)O)s2)ncn1` [Example 1013, 3-(5-{6-[2-(7-Fluoro-4-methoxy-2-methyl-indol-1-yl)-ethylamino]-pyrimidin-4-yl}-3-isopropoxy-thiophen-2-yl)-propionic acid], for which the values for the IC50 at PTRGER4 (EP4) (setting [3]) and against PTGER2 (EP2) (setting [4]) were 17 nM and 14 nM, respectively.
Regarding `COc1cc(-c2cc(NCCn3c(C)cc4c(C)ccc(F)c43)ncn2)cc(C)c1C(=O)O` [compound 286], the values for the IC50 against PTRGER4 (EP4) (setting [1]) and against PTGER2 (EP2) (setting [2]) were 268 nM and 31 nM, respectively.
The like results for `COc1cc(F)cc2c1cc(C)n2CCNc1cc(-c2ccc3c(c2)CCN3)ncn1` [compound 62, [6-(2,3-Dihydro-1H-indol-5-yl)-pyrimidin-4-yl]-[2-(6-fluoro-4-methoxy-2-methyl-indol-1-yl)-ethyl]-amine] were, in that order, 32 nM and 11 nM.
Taken in the same sequence, the figures for `CNS(=O)(=O)c1ccc(-c2cc(NCCn3c(C)cc4c(OC)ccc(F)c43)ncn2)cc1C` [compound 360] were 372 nM and 75 nM.
For `COc1ccc(F)c2c1cc(C)n2CCNc1cc(-c2ccc3ccncc3c2)ncn1` [compound 383], the IC50 against PTRGER4 (EP4) (setting [1]) is 147 nM; on PTGER2 (EP2) (setting [2]), 17 nM.
Consider `CCOc1cc(-c2cc(NCCn3c(C#N)cc4c(C)c(F)c(F)cc43)ncn2)ccc1OCC(=O)O` [Example 893, (4-{6-[2-(2-Cyano-5,6-difluoro-4-methyl-indol-1-yl)-ethylamino]-pyrimidin-4-yl}-2-ethoxy-phenoxy)-acetic acid], for which the IC50 against PTRGER4 (EP4) (setting [3]) is 118 nM; at PTGER2 (EP2) (setting [4]) it was 42 nM.
In the case of `CCNc1cc(-c2cc(NCCn3c(C)cc4cc(F)cc(F)c43)ncn2)ccc1C(=O)O` [compound 167, 4-{6-[2-(5,7-Difluoro-2-methyl-indol-1-yl)-ethylamino]-pyrimidin-4-yl}-2-ethylamino-benzoic acid], the IC50 against PTRGER4 (EP4) (setting [1]) turned out to be 333 nM; against PTGER2 (EP2) (setting [2]), 6 nM.
Taken in the same sequence, the figures for `CCc1cc(-c2cc(NCCn3c(C)cc4c(OC)ccc(Cl)c43)ncn2)cc(Cl)c1C(=O)O` [compound 345] were 164 nM and 89 nM.
Consider `N#Cc1cc2cccc(F)c2n1CCNc1cc(-c2cc(C(F)(F)F)c(C(=O)O)s2)ncn1` [Example 859, 5-{6-[2-(2-Cyano-7-fluoro-indol-1-yl)-ethylamino]-pyrimidin-4-yl}-3-trifluoromethyl-thiophene-2-carboxylic acid], for which the IC50 on PTRGER4 (EP4) (setting [3]) was determined as 60 nM; against PTGER2 (EP2) (setting [4]) it was 6 nM.
With `Cc1ccc(F)c2c1cc(C)n2CCNc1cc(-c2ccc(C(=O)O)c(CCC(C)C)c2)ncn1` [compound 369], the values for the IC50 on PTRGER4 (EP4) (setting [1]) and against PTGER2 (EP2) (setting [2]) were 238 nM and 87 nM, respectively.
The like results for `CCOc1cc(-c2cc(NCCn3c(C)cc4ccccc43)ncn2)sc1C(=O)O` [compound 50] were, in that order, 161 nM and 1 nM.
Taken in the same sequence, the figures for `CCOc1cc(-c2cc(NCCn3c(C)cc4cc(C)cc(Cl)c43)ncn2)ccc1C(=O)O` [compound 284] were 824 nM and 34 nM.
On to `COc1ccc(F)c2c1cc(C#N)n2CCNc1cc(-c2ccc(CNS(C)(=O)=O)cc2)ncn1` [Example 983, N-(4-{6-[2-(2-Cyano-7-fluoro-4-methoxy-indol-1-yl)-ethylamino]-pyrimidin-4-yl}-benzyl)-methanesulfonamide], for which the IC50 against PTRGER4 (EP4) (setting [3]) came out at 244 nM; on PTGER2 (EP2) (setting [4]), 248 nM.
Consider `Cc1ccc2c(c1)cc(C)n2CCNc1cc(-c2ccc(C(=O)O)c(CC(C)C)c2)ncn1` [compound 262], for which the figures for the IC50 against PTRGER4 (EP4) (setting [1]) and on PTGER2 (EP2) (setting [2]) were 925 nM and 35 nM, respectively.
`CCOc1cc(-c2cc(NCCn3c(C#N)cc4c(OC)ccc(F)c43)ncn2)ccc1-c1cnn[nH]1` [Example 930, 1-(2-{6-[3-Ethoxy-4-(3H-[1,2,3]triazol-4-yl)-phenyl]-pyrimidin-4-ylamino}-ethyl)-7-fluoro-4-methoxy-1H-indole-2-carbonitrile]: the IC50 on PTRGER4 (EP4) (setting [3]) was determined as 2 nM; on PTGER2 (EP2) (setting [4]), 4 nM.
Regarding `Cc1cc2c(F)ccc(F)c2n1CCNc1cc(-c2ccc(C(=O)O)c(C3CC3)c2)ncn1` [compound 173, 2-Cyclopropyl-4-{6-[2-(4,7-difluoro-2-methyl-indol-1-yl)-ethylamino]-pyrimidin-4-yl}-benzoic acid], the IC50 is 894 nM against PTRGER4 (EP4) (setting [1]) and 5 nM against PTGER2 (EP2) (setting [2]).
For the molecule `COc1ccc(F)c2c1cc(C#N)n2CCNc1cc(-c2ccc(-c3cnn[nH]3)cc2)ncn1` [Example 923, 7-Fluoro-4-methoxy-1-(2-{6-[4-(3H-[1,2,3]triazol-4-yl)-phenyl]-pyrimidin-4-ylamino}-ethyl)-1H-indole-2-carbonitrile], the IC50 against PTRGER4 (EP4) (setting [3]) stood at 42 nM; on PTGER2 (EP2) (setting [4]) it was 20 nM.
Take `COc1ncc(-c2cc(NCCn3c(C)cc4c(OC)ccc(F)c43)ncn2)s1` [compound 3]: the IC50 on PTRGER4 (EP4) (setting [1]) was 769 nM; on PTGER2 (EP2) (setting [2]) it was 100 nM.
The like results for `CCCNc1cc(-c2cc(NCCn3c(C)cc4c(C)ccc(F)c43)ncn2)ccc1C(=O)O` [compound 356, 4-{6-[2-(7-Fluoro-2,4-dimethyl-indol-1-yl)-ethylamino]-pyrimidin-4-yl}-2-propylamino-benzoic acid] were, in that order, 165 nM and 15 nM.
Take `COc1ccc(F)c2c1cc(C#N)n2CCNc1cc(-c2ccc3[nH]c(=O)[nH]c3c2)ncn1` [Example 1000, 7-Fluoro-4-methoxy-1-{2-[6-(2-oxo-2,3-dihydro-1H-benzoimidazol-5-yl)-pyrimidin-4-ylamino]-ethyl}-1H-indole-2-carbonitrile]: the IC50 on PTRGER4 (EP4) (setting [3]) was found to be 79 nM; against PTGER2 (EP2) (setting [4]), 35 nM.
The like results for `COc1ccc(F)c2c1cc(C)n2CCNc1cc(-c2ccc(-c3csc(O)n3)cc2)ncn1` [Example 798, 4-(4-{6-[2-(7-Fluoro-4-methoxy-2-methyl-indol-1-yl)-ethylamino]-pyrimidin-4-yl}-phenyl)-thiazol-2-ol] were, in that order, 123 nM and 28 nM.
The like results for `CCOc1cc(-c2cc(NCCn3c(C#N)cc4c(OC)ccc(F)c43)ncn2)sc1C(=O)NS(N)(=O)=O` [Example 1029, 5-(6-((2-(2-Cyano-7-fluoro-4-methoxy-1H-indol-1-yl)ethyl)amino)pyrimidin-4-yl)-3-ethoxy-N-sulfamoylthiophene-2-carboxamide] were, in that order, 6 nM and 4 nM.
Turning to `CCCc1cc(-c2cc(NCCn3c(C)cc4c(C#N)ccc(F)c43)ncn2)ccc1C(=O)O` [compound 393], the values for the IC50 against PTRGER4 (EP4) (setting [1]) and against PTGER2 (EP2) (setting [2]) were 745 nM and 9 nM, respectively.
